# Reference: patent US7351695B2, “Topiramate salts and compositions comprising and methods of making and using the same” (Ortho-McNeil Pharmaceuticals, Inc., priority 2002, dated 2008)
# “And” between values parts separate entries of the source, which are not always exact repeats. Identical values can stand only once. Like-named read-outs stand apart in the source and are kept apart here.
# Tests used:
# [1] = Estimation of solubility: minimum solvent needed to dissolve a known amount; assay type: physicochemical; settings: for Solubility (amount of solid in mL of solvent): sodium trihydrate
# Protocol: The solubility of the topiramate sodium trihydrate prepared in this example in water, ethanol, methanol, and THF was estimated by determining the minimum amount of solvent necessary to dissolve a known amount of the compound. In general, a predetermined amount of the compound was placed in a small glass vial, and then solvent was added drop-wise at room temperature until no visible solid remained in the vial.
# [2] = pH of an aqueous solution (pH meter); assay type: physicochemical; settings: 400 mg/mL solution in distilled water
# [3] = Dissolution curves in 0.01 N HCl; assay type: physicochemical; settings: for state at the end of the dissolution experiment: nominal about 110 mM (37 mg/mL free acid concentration)
# Text: FIG. 6 provides results of a comparison between the aqueous solubility of topiramate sodium trihydrate with that of topiramate. […] Independently, a set of dissolution curves were obtained in 0.01 N HCl (representative of a modestly acidic stomach), and these are shown in FIG. 7.
# [4] = Physical stability by TGA and PXRD at preset temperature and relative humidity; assay type: physicochemical; settings: for Physical stability result (solid form): 2 weeks
# Protocol: A further study on physical stability of a sample from this example was conducted in glass vials at preset temperatures and controlled relative humidities. The humidities stored at room temperature were controlled using saturated salt solutions (see H. Nyquist, Pharm. Tech. 4(2):47-48 (1983)). At other temperatures, the oven configurations allowed humidity control. After 2 weeks, samples at various conditions were tested by TGA and PXRD to assess whether the crystalline topiramate sodium trihydrate remained intact or not. The data in Table 3 summarize findings after 2 weeks of incubation.
# [5] = Chemical stability by HPLC analysis of stored samples; assay type: physicochemical
# [6] = Oral pharmacokinetics in rats, capsules by gavage, plasma by LC/MS/MS; assay type: in vivo, male Sprague-Dawley rats; settings: rat
# [7] = cited from earlier work
# [8] = in vivo; cited from earlier work
# [9] = test system: kindled seizures; settings: rats; cited from earlier work
# [10] = nominal concentration about 110 mM
compound,measurement,setting,value
CC1(C)O[C@@H]2[C@@H](CO[C@@]3(COS(N)(=O)=O)OC(C)(C)O[C@@H]23)O1 [topiramate sodium trihydrate],solubility,"[1]; THF, room temperature (slight overestimate), read-out: Solubility (amount of solid in mL of solvent)",44.2 mg/mL
same,solubility,"[1]; ethanol, room temperature, read-out: Solubility (amount of solid in mL of solvent)",376 mg/mL
same,solubility,"[1]; methanol, room temperature, single trials, read-out: Solubility (amount of solid in mL of solvent)",1280 mg/mL
same,Solubility (amount of solid in mL of solvent),"[1]; methanol, room temperature, single trials",1600 mg/mL and 1530 mg/mL
same,solubility,"[1]; methanol, room temperature, read-out: Average Solubility",1470 mg/mL
same,aqueous solubility relative to topiramate,[1]; vs. literature value of […],over 100 times
same,solubility,"[1]; water, FIG. 6, read-out: aqueous solubility",1300 mg/mL
same,solubility,"[1]; water, room temperature, single trials, read-out: Solubility (amount of solid in mL of solvent)",1240 mg/mL
same,Solubility (amount of solid in mL of solvent),"[1]; water, room temperature, single trials",1435 mg/mL
same,solubility,"[1]; water, room temperature, read-out: Average Solubility",1330 mg/mL
same,pH of solution,[2],about 11.2
same,solubility at the equilibrium condition relative to (1) and (3),[3],increased solubility
same,state at the end of the dissolution experiment,"[3]; listed as topiramate sodium salt trihydrate, sodium trihydrate",not saturated
same,pH at the equilibrium condition,[3]; [10],9.5
same,Physical stability result (solid form),"[4]; 5 °C, ambient RH (refrigerated)",Trihydrate
same,Physical stability result (solid form),"[4]; 25 °C, 31% RH",Trihydrate
same,Physical stability result (solid form),"[4]; 25 °C, 75% RH",Trihydrate
same,Physical stability result (solid form),"[4]; 25 °C, <5% RH",Trihydrate & some amorphous
same,Physical stability result (solid form),"[4]; 40 °C, 75% RH",Trihydrate
same,Physical stability result (solid form),"[4]; 40 °C, ambient RH (<20)",Trihydrate
same,Physical stability result (solid form),"[4]; 60 °C, ambient RH (<10)",Amorphous
same,Physical stability result (solid form),"[4]; 80 °C, ambient RH (<5)",Amorphous
same,temperature up to which the hydrate stays intact,[4]; by TGA,≤ 40 °C
same,chemical degradation by HPLC,"[5]; 2 weeks at 25° C./<5% RH, 25° C./31% RH, 25° C./75% RH, 40° C./ambient RH, or 40° C./75% RH",No chemical degradation
same,chemical degradation by HPLC,"[5]; >12 weeks at 25° C./<5% RH, 25° C./31% RH, 25° C./75% RH, or 40° C./75% RH",No chemical degradation
same,chemical degradation by HPLC,[5]; stored at or above 60° C. for at least 2 weeks,Degradates were observed
same,Tmax,"[6]; male, Sprague-Dawley, plasma, oral capsule, 30 mg/kg free topiramate equivalent, first time point, read-out: time of peak plasma concentration (tmax)",30 min
same,"plasma profile, comparison in words","[6]; oral, 30 mg/kg, FIG. 10",comparable to an oral solution of TOPAMAX®
"CC1(C)O[C@@H]2[C@@H](CO[C@@]3(COS(N)(=O)=O)OC(C)(C)O[C@@H]23)O1 [topiramate, 2,3:4,5-Di-O-isopropylidene-β-D-fructopyranose sulfamate]",state at the end of the dissolution experiment,[3]; listed as topiramate crystal form,remained as suspensions
same,time at which dissolution was essentially complete,[3]; [10],5 min
same,"solubility in acetone, chloroform, dimethylsulfoxide, and ethanol",[7],freely soluble
same,time to reach peak plasma levels,[8],about two
same,blocking kindled seizures,[9],effective in blocking kindled seizures
